# In PubChem BioAssay (NCI):
#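 How tested: cells in 96-well plates exposed to compound for 48 hours at five concentrations. GI50 is the concentration that inhibits growth by half. TGI marks complete inhibition of growth.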
# Legend:
# Assay in all cases: NCI anticancer screen, dose series, 48 h
# UACC-62 melanoma = system: UACC-62 melanoma
# DU-145 prostate = system: DU-145 prostate
# SF-268 CNS = system: SF-268 CNS
# UACC-257 melanoma = system: UACC-257 melanoma
# SW-620 colon = system: SW-620 colon
# M14 melanoma = system: M14 melanoma
# SNB-75 CNS = system: SNB-75 CNS
# MDA-MB-231 breast = system: MDA-MB-231 breast
# SK-MEL-5 melanoma = system: SK-MEL-5 melanoma
# IGROV1 ovarian = system: IGROV1 ovarian
Structure (SMILES),GI50 (UACC-62 melanoma),TGI (UACC-62 melanoma),GI50 (DU-145 prostate),TGI (DU-145 prostate),GI50 (SF-268 CNS),TGI (SF-268 CNS),GI50 (UACC-257 melanoma),TGI (UACC-257 melanoma),GI50 (SW-620 colon),TGI (SW-620 colon),GI50 (M14 melanoma),TGI (M14 melanoma),GI50 (SNB-75 CNS),TGI (SNB-75 CNS),GI50 (MDA-MB-231 breast),TGI (MDA-MB-231 breast),GI50 (SK-MEL-5 melanoma),TGI (SK-MEL-5 melanoma),GI50 (IGROV1 ovarian),TGI (IGROV1 ovarian)
CC1(C)N=C(N)N=C(N)N1c1ccc(OCC(=O)Nc2ccc(S(=O)(=O)F)cc2Cl)c(Cl)c1,1.16 µM,> 100 µM,5.69 µM,> 100 µM,3.79 µM,> 100 µM,> 100 µM,> 100 µM,1.08 µM,> 100 µM,5.01 µM,> 100 µM,5.72 µM,> 100 µM,54.4 µM,> 100 µM,1.15 µM,> 100 µM,0.42 µM,> 100 µM
CSC1=CC(=O)c2ccccc2C1=O,4.06 µM,17.1 µM,10.8 µM,23.6 µM,8.85 µM,22.1 µM,2.04 µM,4.36 µM,2.49 µM,8.13 µM,2.03 µM,3.88 µM,11.6 µM,24.2 µM,1.29 µM,3.02 µM,5.74 µM,19 µM,3.7 µM,13.2 µM
CNC(=O)/C=C/C1=CN2C(=O)c3ccc(C)c(O)c3NC(OC)C2C1 (centres undefined),–,< 0.0154 µM,–,< 0.01 µM,–,0.08 µM,–,< 0.0169 µM,–,24.4 µM,–,0.0191 µM,–,< 0.0269 µM,–,< 0.0397 µM,–,0.186 µM,–,> 100 µM
CCOC(=O)c1c(C)n([O-])c2cc(F)c(F)cc2[n+]1=O,1.47 µM,2.91 µM,3.27 µM,9.01 µM,1.57 µM,3.69 µM,1.7 µM,3.69 µM,0.428 µM,1.57 µM,1.09 µM,2.58 µM,1.91 µM,3.54 µM,0.955 µM,2.58 µM,2.31 µM,5.45 µM,0.491 µM,–
CS(=O)(=O)N1CCC(Nc2ncc(C(=O)c3c(F)cccc3F)c(N)n2)CC1,12.6 µM,> 25 µM,9.76 µM,> 25 µM,> 17.9 µM,> 25 µM,13.2 µM,> 25 µM,5.73 µM,> 25 µM,19.4 µM,> 25 µM,> 10.9 µM,24.3 µM,11.9 µM,> 25 µM,7.65 µM,> 25 µM,11.4 µM,> 25 µM
Clc1nc(Cl)c2ncn(-c3ccccc3)c2n1,11.3 µM,25.3 µM,1.44 µM,2.96 µM,3.26 µM,15.4 µM,6.86 µM,20.2 µM,2.08 µM,5.74 µM,1.86 µM,3.85 µM,2.93 µM,13.9 µM,10.7 µM,24.5 µM,10.4 µM,22.3 µM,1.66 µM,3.38 µM
COc1cccc(C(=O)NNc2nc(Cl)nc(N3CCN(C(c4ccccc4)c4ccccc4)CC3)n2)c1,2.3 µM,5.85 µM,4.3 µM,15.3 µM,2.07 µM,4.73 µM,3.06 µM,11.7 µM,1.9 µM,3.98 µM,1.7 µM,3.53 µM,1.51 µM,3.56 µM,1.88 µM,3.85 µM,15.9 µM,29.7 µM,1.63 µM,3.07 µM
